Reference: the NIST ThermoML archive (doi:10.1021/je800653d)

Assays:
[1] = xn = mol fraction of the nth substance listed; conditions: 101 kPa, Liquid, x2 = 0; for speed of sound: Linear variable-path acoustic interferometer; for viscosity: Capillary tube (Ostwald / Ubbelohde) method
[2] = 101 kPa, Liquid; for speed of sound: Linear variable-path acoustic interferometer; for viscosity: Capillary tube (Ostwald / Ubbelohde) method

CCCOC(C)=O [propyl ethanoate] + O=S1(=O)CCCC1
[1]
Conditions	mass density [kg/m3]	speed of sound [m/s]	viscosity [mPa·s]
298.15 K	883.7	1156	–
303.15 K	877.7	1149	0.4878
308.15 K	873.1	1139	0.4595
313.15 K	866.7	1126	0.4329

CCCCOC(C)=O [butyl ethanoate] + O=S1(=O)CCCC1
[1]
Conditions	mass density [kg/m3]	speed of sound [m/s]	viscosity [mPa·s]
298.15 K	875.6	1203	–
303.15 K	871.6	1176	0.6072
308.15 K	867.1	1155	0.5687
313.15 K	862	1135	0.534

O=S1(=O)CCCC1 [sulfolane]
[2]
Conditions	mass density [kg/m3]	speed of sound [m/s]	viscosity [mPa·s]
298.15 K	1263.9	1601	–
303.15 K	1261.8	1588	10.03
308.15 K	1257	1576	8.795
313.15 K	1251.6	1558	7.837

CCOC(C)=O [ethyl acetate]
[2]
Conditions	mass density [kg/m3]	speed of sound [m/s]	viscosity [mPa·s]
298.15 K	895.1	1142	–
303.15 K	889.4	1122	0.3806
308.15 K	883.9	1101	0.3622
313.15 K	875.8	1082	0.3426

CCCCOC(C)=O [butyl ethanoate]
[2]
Conditions	mass density [kg/m3]	speed of sound [m/s]	viscosity [mPa·s]
298.15 K	875.6	1203	–
303.15 K	871.6	1176	0.6072
308.15 K	867.1	1155	0.5687
313.15 K	862	1135	0.534

CCOC(C)=O [ethyl acetate] + O=S1(=O)CCCC1
[1]
Conditions	mass density [kg/m3]	speed of sound [m/s]	viscosity [mPa·s]
298.15 K	895.1	1142	–
303.15 K	889.4	1122	0.3806
308.15 K	883.9	1101	0.3622
313.15 K	875.8	1082	0.3426

CCCOC(C)=O [propyl ethanoate]
[2]
Conditions	mass density [kg/m3]	speed of sound [m/s]	viscosity [mPa·s]
298.15 K	883.7	1156	–
303.15 K	877.7	1149	0.4878
308.15 K	873.1	1139	0.4595
313.15 K	866.7	1126	0.4329
